Drawing on PubChem BioAssay (NCI), this text covers TGI for 14 molecules.

Structures are written as SMILES.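 Tested at 5 concentrations; 48 h exposure; 96-well plates; endpoints linearly interpolated, else capped at highest concentration. TGI: total growth inhibition.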

What all share (experiment): NCI-60 cell line screen, 48 h
For assay [1], the system named is 786-0 renal.
The subject of assay [2] is ACHN renal.
The test system of assay [3] is HCT-116 colon.
Assay [4] relates to LXFL 529 NSCLC.
The test system of assay [5] is NCI-H460 lung.
In assay [6] the test system is RXF 393 renal.
Assay [7] deals with SF-539 CNS.
In assay [8] the test system is SK-MEL-28 melanoma.
Assay [9] relates to SW-620 colon.
Assay [10] has as its system UO-31 renal.

As for `O=c1cc(-c2ccccc2)[nH]c2c(F)ccc(F)c12`, the TGI in [1], in assay [2], in [3], in assay [4], in assay [5] and in [6] was > 100 µM each time. The TGI in [7], in assay [8], in assay [9] and in [10] was > 100 µM each time.

For the molecule `COc1ccc(OC)c([N+](=O)[O-])c1-c1nc2sc(C)cn2c1/C=N/N=C(N)N`, the TGI in assay [1] is > 100 µM; in assay [2], > 100 µM; in assay [3], > 100 µM; in assay [5], > 100 µM; in [6] it was 76.1 µM; in [7], > 100 µM. The TGI in [8] is 43.5 µM; in [9] it was > 100 µM; in assay [10], > 100 µM.

With `CC(=O)OCC12C(OC(C)=O)C[C@@H](C)C3(CC(c4ccoc4)OC3=O)C1CCC(OC(C)=O)C21CO1` (some centres not stated), the TGI in [1], in [2], in assay [3], in assay [5], in [6] and in assay [7] was > 100 µM throughout. Besides, the TGI in [8], in [9] and in assay [10] was > 100 µM in each case.

With `O=C1CSC(c2cc3cc(Br)ccc3nc2Cl)N1c1ccc(F)c(Cl)c1` (configuration not stated), the TGI in [1], in assay [2], in [3], in [5], in [6] and in assay [7] was > 50 µM throughout. In addition, the TGI in assay [8], in assay [9] and in assay [10] was > 50 µM throughout.

For `CCOC(=O)CCC1(C(=O)O[C@@H]2C[C@H](C)CC[C@H]2C(C)C)CCCCC1=O` (some centres not stated), the TGI in assay [1], in [2], in assay [3], in [5], in assay [6] and in [7] was > 100 µM each time. Further, the TGI in assay [8], in [9] and in assay [10] was > 100 µM each time.

With `CCN(CC)CCC1(C(=O)OC)SCCc2ccc(C)cc21` (configuration not stated), the TGI in [1], in assay [2], in assay [3], in [5], in assay [6] and in [7] was > 100 µM throughout. In addition, the TGI in assay [8], in [9] and in assay [10] was > 100 µM in each case.

Turning to `Fc1sc2c(c1F)C1CCC2C1` (configuration not stated), the TGI in assay [1], in assay [2], in [3], in assay [5], in [6] and in assay [7] was > 100 µM throughout. The TGI in assay [8], in assay [9] and in [10] was > 100 µM each time.

`NC(=O)c1ccc(S(=O)(=NS(=O)(=O)c2ccccc2)c2ccc(C(N)=O)cc2)cc1`: the TGI in [1], in assay [2], in assay [3], in [5], in [6] and in assay [7] was > 100 µM throughout. For the same molecule, the TGI in [8], in [9] and in assay [10] was > 100 µM each time.

Regarding `CC(NC1=NCCO1)c1ccco1` (configuration not stated), the TGI in [1], in assay [2], in assay [3], in assay [5], in [6] and in assay [7] was > 100 µM in each case. The TGI in assay [8], in assay [9] and in [10] was > 100 µM each time.

Regarding `C(=N\Nc1nnc(-c2nnc(N/N=C/c3ccccc3)o2)o1)/c1ccccc1`, the TGI in [1], in assay [2], in assay [3], in [5], in assay [6] and in assay [7] was > 10 µM each time. The TGI in assay [8], in assay [9] and in assay [10] was > 10 µM each time.

As for `O=C1CCc2c(sc3ncnc(Nc4cccc(Br)c4)c23)C1`, the TGI in [1] was found to be 19 µM; in assay [2], 8.04 µM; in assay [3], 11.7 µM; in [5], 12.9 µM; in assay [6], 7.51 µM; in assay [7], 13.2 µM. For the same molecule, the TGI in assay [8] was 52.6 µM; in [9], 11.6 µM; in assay [10], 5.23 µM.

In the case of `Cn1c(-c2cccs2)cc(-c2ccsc2)c1-c1ccsc1`, the TGI in [1], in [2], in assay [3], in [5], in assay [6] and in [7] was > 100 µM each time. The TGI in assay [8], in assay [9] and in assay [10] was > 100 µM each time.

Take `COc1ccc(C(OCC2OC(n3ccc(Oc4c(F)c(F)c(F)c(F)c4F)nc3=O)CC2OP(OCCC#N)N(C(C)C)C(C)C)(c2ccccc2)c2ccc(OC)cc2)cc1` (configuration not stated): the TGI in assay [1], in assay [2], in assay [3], in [5], in [6] and in [7] was > 100 µM each time. Also, the TGI in assay [8], in [9] and in assay [10] was > 100 µM each time.

For `O=C(CSCC(=O)N/N=C\c1cccc(Br)c1)N/N=C\c1cccc(Br)c1`, the TGI amounted to 35.5 µM in assay [1]; 26.4 µM in [2]; 27.9 µM in [3]; 84.3 µM in assay [5]; 67.9 µM in assay [6]; 50.8 µM in assay [7]. The TGI was 41.7 µM in assay [8], 77.4 µM in assay [9] and 33.1 µM in assay [10].
